Source: ChEMBL document CHEMBL1123565, “Synthesis and 5-hydroxytryptamine antagonist activity of 2-[[2-(dimethylamino)ethyl]thio]-3-phenylquinoline and its analogues” (J Med Chem, 1987)
Active and inactive are the calls of the source. The rule behind the calls is not given here.

Legend:
Rattus norvegicus [1] = test: Antagonistic activity against fenfluramine induced hyperthermia in rat after peroral administration; format: functional; details: po, read-out: ID50 (the source's name)
Mus musculus [2] = test: compound was tested for antagonistic activity against 5-Hydroxytryptamine-induced head shake in mouse after intraperitoneal administration; NA denotes not active.; format: functional, organism-based
Rattus norvegicus [3] = test: compound was tested for antagonistic activity against fenfluramine induced hyperthermia in rat after peroral administration at 50 mg/kg; NA denotes not active.; format: functional, organism-based; set-up: dose 50 mg/kg
Rattus norvegicus [4] = test: compound was tested for antagonistic activity against fenfluramine induced hyperthermia in rat after peroral administration; Value ranges from 0.1-1.3; format: functional; details: po, read-out: ID50 (the source's name)
Mus musculus [5] = test: compound was tested for antagonistic activity against 5-Hydroxytryptamine-induced head shake in mouse after intraperitoneal administration; Value ranges from 0.35-0.77; format: functional; details: ip, read-out: ID50 (the source's name)
Mus musculus [6] = species: Mus musculus; test: compound was tested for antagonistic activity against 5-Hydroxytryptamine-induced head shake in mouse; format: functional; details: read-out: ID50 (the source's name)
Mus musculus [7] = test: Antagonistic activity test against 5-Hydroxytryptamine-induced head shake in mouse after intraperitoneal administration; format: functional; details: ip, read-out: ID50 (the source's name)
Rattus norvegicus [8] = species: Rattus norvegicus; test: compound was tested for antagonistic activity against fenfluramine induced hyperthermia in rat; format: functional; details: read-out: ID50 (the source's name)
Rattus norvegicus [9] = test: compound was tested for antagonistic activity against fenfluramine induced hyperthermia in rat after peroral administration; Value ranges from 0.3-4.3; format: functional; details: po, read-out: ID50 (the source's name)
Mus musculus [10] = test: compound was tested for antagonistic activity against 5-Hydroxytryptamine-induced head shake in mouse after intraperitoneal administration; Value ranges from 1.0-2.5; format: functional; details: ip, read-out: ID50 (the source's name)
Rattus norvegicus [11] = test: compound was tested for antagonistic activity against fenfluramine induced hyperthermia in rat after peroral administration; NA denotes not active at a dose of 50 mg/kg.; format: functional, organism-based; set-up: dose 50 mg/kg
Mus musculus [12] = test: compound was tested for antagonistic activity against 5-Hydroxytryptamine-induced head shake in mouse after intraperitoneal administration; Value ranges from 0.02-0.9; format: functional; details: ip, read-out: ID50 (the source's name)
Rattus norvegicus [13] = test: compound was tested for antagonistic activity against fenfluramine induced hyperthermia in rat after peroral administration 0.02-0.3; format: functional; details: po, read-out: ID50 (the source's name)
Rattus norvegicus [14] = test: compound was tested for antagonistic activity against fenfluramine induced hyperthermia in rat after peroral administration at 50 mg/kg; format: functional, organism-based; set-up: dose 50 mg/kg
Mus musculus [15] = test: compound was tested for antagonistic activity against 5-Hydroxytryptamine-induced head shake in mouse after intraperitoneal administration; NA denotes not active at a dose of 50 mg/kg.; format: functional, organism-based; set-up: dose 50 mg/kg
Rattus norvegicus [16] = test: compound was tested for antagonistic activity against fenfluramine induced hyperthermia in rat after peroral administration at a dose of 50 mg/kg; NA denotes not active.; format: functional, organism-based; set-up: dose 50 mg/kg

SMILES	ED50 (Rattus norvegicus [1]) [mg/kg]	ED50 (Mus musculus [7]) [mg/kg]	further results
CSc1ccc2cc(-c3ccccc3)c(SCCN(C)C)nc2c1	50		ID50 (Mus musculus [2]): inactive
CN(C)CCSc1nc2ccccc2c(C(N)=O)c1-c1ccccc1			ID50 (Rattus norvegicus [3]): inactive; ID50 (Mus musculus [2]): inactive
CC[C@@H](CO)NC(=O)[C@@H]1C=C2c3cccc4c3c(cn4C)C[C@H]2N(C)C1 [METHYSERGIDE]			ED50 (Rattus norvegicus [4]): 0.4 mg/kg; ED50 (Mus musculus [5]): 0.52 mg/kg
CCCc1cc2ccccc2nc1SCCN(C)C.O=C(O)C(=O)O			ED50 (Mus musculus [6]): 5 mg/kg; ID50 (Rattus norvegicus [3]): inactive
CCC(C)c1cc2ccccc2nc1SCCN(C)C.O=C(O)C(=O)O (stereo not drawn)	50	1.5	
CSc1ccc(-c2cc3ccccc3nc2SCCN(C)C)cc1.Cl		10	ED50 (Rattus norvegicus [8]): 7.8 mg/kg
COc1c(-c2ccccc2)c(SCCN(C)C)nc2ccccc12.O=C(O)C(=O)O	5.5	3.5	
CCc1cc2ccccc2nc1SCCN(C)C.Cl	50	50	
CN(C)CCSc1nc2ccccc2cc1-c1ccccc1.Cl			ED50 (Rattus norvegicus [9]): 1.2 mg/kg; ED50 (Mus musculus [10]): 1.6 mg/kg
COc1ccccc1-c1cc2ccccc2nc1SCCN(C)C.Cl	4.6	1.2	
COc1ccccc1-c1c(SCCN(C)C)nc2ccccc2c1C.O=C(O)C(=O)O	50	50	
CN(C)CCSc1nc2ccccc2cc1-c1ccc(Cl)cc1.Cl		9.1	ID50 (Rattus norvegicus [11]): inactive
CCCCc1cc2ccccc2nc1SCCN(C)C.Cl	50	2.3	
Cc1c(-c2ccc(F)cc2)c(SCCN(C)C)nc2ccccc12.O=C(O)C(=O)O	11.1	50	
CC(C)c1cc2ccccc2nc1SCCN(C)C.Cl	2.7	2.6	
COc1ccc(OC)c(-c2cc3ccccc3nc2SCCN(C)C)c1.Cl	4.2	3	
Cl.NCCSc1nc2ccccc2cc1-c1ccccc1	4.8	50	
CCCOc1ccc(-c2cc3ccccc3nc2SCCN(C)C)cc1.Cl	5.3	0.5	
CN(C)CCSc1nc2ccc(Br)cc2cc1-c1ccccc1.O=C(O)C(=O)O	6.7	50	
CN(C)CCSc1nc2ccccc2cc1-c1ccc(Br)cc1.Cl	50	19.1	
CN(C)CCSc1nc2cc(N(C)C)ccc2cc1-c1ccccc1.O=C(O)C(=O)O	50		ID50 (Mus musculus [2]): inactive

SMILES	ED50 (Rattus norvegicus [1]) [mg/kg]	ED50 (Mus musculus [7]) [mg/kg]	further results
CN(C)CCSc1nc2ccccc2cc1-c1ccc(O)cc1.Cl	50	7.9	
Cc1ccc2cc(-c3ccccc3)c(SCCN(C)C)nc2c1.O=C(O)C(=O)O	50	50	
COc1c(-c2ccsc2)c(SCCN(C)C)nc2ccccc12.O=C(O)C(=O)O		50	ID50 (Rattus norvegicus [3]): inactive
CNCCSc1nc2ccccc2cc1-c1ccccc1.Cl	7	6.2	
CCN(CC)CCSc1nc2ccccc2cc1-c1ccccc1.Cl	50	25	
Cc1c(-c2ccccc2)c(SCCN(C)C)nc2ccccc12.O=C(O)C(=O)O	50	6.2	
CN(C)CCSc1nc2ccccc2cc1-c1cccs1.O=C(O)C(=O)O	6.9	4.9	
O=C(c1ccc(F)cc1)C1CCN(CCn2c(=O)[nH]c3ccccc3c2=O)CC1 [KETANSERIN]			ED50 (Mus musculus [12]): 0.5 mg/kg; ED50 (Rattus norvegicus [13]): 0.1 mg/kg
CC(c1ccccc1)c1cc2ccccc2nc1SCCN(C)C.O=C(O)C(=O)O (stereo not drawn)		50	ID50 (Rattus norvegicus [3]): inactive
CCN(C)CCSc1nc2ccccc2cc1-c1ccccc1.O=C(O)C(=O)O		50	
Cc1ccccc1-c1cc2ccccc2nc1SCCN(C)C.Cl	50	3	
CN(C)CCSc1nc2ccccc2cc1-c1cccc(F)c1.Cl	4.6	2.5	
CN(C)CCSc1nc2ccccc2cc1-c1ccsc1.O=C(O)C(=O)O	7.9	3.4	
Cc1cc2ccccc2nc1SCCN(C)C			ID50 (Rattus norvegicus [14]): inactive; ID50 (Mus musculus [15]): inactive
COc1ccc(-c2cc3ccccc3nc2SCCN(C)C)cc1.Cl	28	5.9	
CN(C)CCSc1nc2ccccc2cc1-c1ccc(C(F)(F)F)cc1.Cl		50	ID50 (Rattus norvegicus [16]): inactive
Cc1ncc(-c2cc3ccccc3nc2SCCN(C)C)s1.O=C(O)C(=O)O	6.9	4.9	
Cc1cccc2cc(-c3ccccc3)c(SCCN(C)C)nc12			ID50 (Rattus norvegicus [3]): inactive; ID50 (Mus musculus [2]): inactive
COc1ccccc1-c1cc2cc(C)ccc2nc1SCCN(C)C.O=C(O)C(=O)O	50	50	
COc1c(-c2ccc(F)cc2)c(SCCN(C)C)nc2ccccc12.O=C(O)C(=O)O	3.3	50	
Cc1c(-c2ccsc2)c(SCCN(C)C)nc2ccccc12.O=C(O)C(=O)O	50	3.1	

SMILES	ED50 (Rattus norvegicus [1]) [mg/kg]	ED50 (Mus musculus [7]) [mg/kg]	further results
Cc1cccc(-c2cc3ccccc3nc2SCCN(C)C)c1.Cl	5.9	1.7	
CN(C)CCSc1nc2ccc(Cl)cc2cc1-c1ccccc1.O=C(O)C(=O)O	50	50	
Cc1ccc(-c2cc3ccccc3nc2SCCN(C)C)cc1.Cl	4.2	1.9	
CN(C)CCSc1nc2ccccc2cc1C1CC1.O=C(O)C(=O)O	25	3.4	
CN(C)CCSc1nc2ccccc2cc1Cc1ccccc1.Cl		50	ID50 (Rattus norvegicus [3]): inactive
CN(C)CCSc1nc2ccccc2cc1-c1ccc(C#N)cc1.Cl	10.7	1.2	
COc1ccc2cc(-c3ccccc3)c(SCCN(C)C)nc2c1.Cl	3.1	50	
CN(C)CCSc1nc2ccccc2cc1-c1ccc(F)cc1.Cl	2.9	1.7	
CN(C)CCSc1nc2ccccc2cc1-c1ccccc1Cl.Cl	9.9	50	
COc1ccc2nc(SCCN(C)C)c(-c3ccccc3)cc2c1.O=C(O)C(=O)O	8.3	50	
Cc1c(C(C)C)c(SCCN(C)C)nc2ccccc12.O=C(O)C(=O)O		50	ID50 (Rattus norvegicus [3]): inactive
CCCOc1ccc2cc(-c3ccccc3)c(SCCN(C)C)nc2c1.O=C(O)C(=O)O	50	50	
CN(C)CCSc1nc2ccccc2cc1-c1ccccc1F.Cl	7.2	1.9	
CN(C)CCSc1nc2ccccc2cc1C1CCCCC1.Cl	50	50	
COc1c(-c2ccccc2C)c(SCCN(C)C)nc2ccccc12.Cl	7.2	50	
CSc1ccc2nc(SCCN(C)C)c(-c3ccccc3)cc2c1.O=C(O)C(=O)O	10.3	50	
COc1cccc(-c2cc3ccccc3nc2SCCN(C)C)c1.Cl	5.1	25	
CN(C)CCSc1nc2ccccc2cc1C1CCCC1.O=C(O)C(=O)O		50	ID50 (Rattus norvegicus [3]): inactive
CN(C)CCSc1nc2ccccc2cc1C(C)(C)C.O=C(O)C(=O)O		50	ID50 (Rattus norvegicus [3]): inactive
CN(C)CCSc1nc2ccccc2cc1-c1ccccn1.O=C(O)C(=O)O	50	3.4	
